In paper PMC5074076, “Novel minimal physiologically-based model for the prediction of passive tubular reabsorption and renal excretion clearance” (European Journal of Pharmaceutical Sciences, 2016):

What was measured:
[1] = Observed clearance ratio and fraction reabsorbed (Freab, Freab′) calculated from CLR, fu,p and GFR; settings: for Apparent Freab / Apparent Freab’: calculated from observed CLR, fu,p and GFR; for Freab: observed/apparent, 1 - CLR/(GFR x fu,p), GFR 120 mL/min
Procedure: The clearance ratio was calculated from clinical data using Eqs. […] For the remaining drugs the fraction reabsorbed (Freab) was calculated using Eq.
GFR values for healthy subjects may vary as a result of biological as well as inter-individual variation and also the method of measurement. […] Individual GFR values for subjects in clinical trials databases were generally not available.
In the proposed model, the nephron is represented as five compartments, namely the glomerulus and four tubular regions, as depicted in Fig. 1. The tubular compartments in the model, listed in anatomical order starting from the glomerulus are: the proximal tubule (PT), the loop of Henle (LoH), the distal tubule (DT) and the collecting duct (CD). […] The relationship between Freab′ and Freab is shown in Eq. (11). The predicted overall Freab′ was calculated from the predicted Freab′ in each (i) tubular region (Freab,i′), as shown in Eq. (12).

[2] = pKa, potentiometric AstraZeneca in-house assay (or ACD / BioByte); settings: measured, potentiometric
Text: (§1) The pKa values associated with ionisable centres identified within a given drug were used to calculate the fraction of drug ionised at pH 6.5. Drugs were then classified into groups as follows: drugs with > 50% unionised at pH 6.5 were classified as “Neutral”; drugs with > 50% ionised as mono −/di −/tri-protic acids or bases were classified as “Acid” or “Base”, respectively; “Zwitterions” were classified as drugs with > 50% ionised, with the major ionised species having no net charge; all other drugs were classified as amphoteric. […] LogD6.5 for neutral, amphoteric and zwitterion drugs were assumed to be equal to LogD7.4.

[3] = Ionisation classification at pH 6.5 from pKa; type: physicochemical; settings: predominant species (> 50%) at pH 6.5 from measured or calculated pKa
Text: as §1

[4] = LogD6.5 estimated from LogD7.4 and pKa; settings: octanol/buffer, pH 6.5
Text: as §1

[5] = Papp-Freab′ calibration of Caco-2 Papp with reference drugs and CLR prediction; set-up: species or system human; settings: reference drugs; calibrated Caco-2 Papp after Hill equation fitting
Text: To account for this and to allow the Caco-2 data in the present study to be transferable to other assay formats/laboratories, a Papp–Freab′ calibration method was explored by splitting the available Papp and Freab′ data into ‘reference’ and internal ‘validation’ subsets. […] The calibration approach is proposed as a pragmatic method to account for inter-assay/inter-laboratory differences; herein it is applied to the current dataset only, and not external data as intended for future studies.
In order to evaluate the application of Papp–Freab′ calibration (Eq. (17)), 11 drugs were selected as reference ‘calibrator’ drugs (Papp,ref) covering a representative range of Freab′ and Papp values (Table 5). The remaining 34 drugs were treated as an internal ‘validation’ set.

[6] = cited from earlier work; for CLR: healthy adult subjects, overall weighted mean of literature values, absolute (not normalised), ref Supplementary Results Table S2.1; for Overall weighted mean CLR: healthy subjects, plasma and urine data from same subjects, normalised for subject weight and body surface area where necessary; for Overall weighted mean CLR / CLR Observed: ref Table S2.1; for CLR Observed: overall weighted mean of values obtained from a literature survey
[7] = Caco-2 apparent permeability (Papp), apical to basolateral, pH 6.5-7.4 gradient, efflux inhibitor cocktail; settings: human, Caco-2, pH 6.5
Procedure: (§2) The assay was performed using the apical to basolateral pH gradient format of pH 6.5 to pH 7.4. […] The efflux transporter inhibitor cocktail was used to minimise the effect of efflux transporters expressed in Caco-2 cells (e.g. P-glycoprotein, BCRP and MRP2) on the estimate of apical to basolateral Papp of substrates for such transporters.

Caco-2 cell monolayers = experiment: as above; settings: Caco-2, apical to basolateral, pH 6.5 to 7.4, efflux inhibitor cocktail, 2 h
Procedure: as §2

[8] = set-up: method as in Hammarlund et al., 1985; Swärd et al., 2005; settings: healthy subjects or cardiac surgery patients, well hydrated; ref Hammarlund et al., 1985; Swärd et al., 2005; cited from earlier work
in vitro = settings: human, Caco-2, pH 6.5
Procedure: as §2

[9] = LogD7.4 octanol-buffer, shake-flask (or ACD / BioByte); settings: octanol/buffer, pH 7.4
Text: as §1

CCCNC(=O)NS(=O)(=O)c1ccc(Cl)cc1 [Chlorpropamide]
Apparent Freab [1]: 0.907 | Apparent Freab’ [1]: 0.915 | Freab [1]: 0.91 | pKa ([2]; pKa (acid)): 4.69 | Ionisation at pH 6.5 [3]: Acid | logD [4]: 0.56 | Papp,ref,calibrated [5]: 111.60 × 10^− 6 cm/s | CLR [6]: 0.56 mL/min | Overall weighted mean CLR [6]: 0.6 mL/min | CLR Observed [6]: 0.56 mL/min | Papp A→B at 2 h [7]: 88.1 ×10⁻⁶ cm/s | Papp (Caco-2 cell monolayers): 88.1 × 10^− 6 cm/s

NS(=O)(=O)c1cc(C(=O)O)c(NCc2ccco2)cc1Cl [Furosemide]
increase in urine flow compared to control conditions [8]: up to 20 mL/ min

NCC1(CC(=O)O)CCCCC1 [Gabapentin]
Apparent Freab [1]: 0.183 | Apparent Freab’ [1]: 0.185 | Freab [1]: 0.18 | Ionisation at pH 6.5 [3]: Zwitterion | Papp A→B (in vitro): 0.67 ×10⁻⁶ cm/s | CLR [6]: 95.1 mL/min | Overall weighted mean CLR [6]: 95.1 mL/min | CLR Observed [6]: 95.05 mL/min

C=CCOc1ccccc1OCC(O)CNC(C)C (centres unmarked) [Oxprenolol]
Apparent Freab [1]: 0.443 | Apparent Freab’ [1]: 0.447 | Freab [1]: 0.44 | pKa ([2]; pKa (base)): 9.6 | logD [9]: 0.23 | Ionisation at pH 6.5 [3]: Base | Papp,ref,calibrated [5]: 12.00 × 10^− 6 cm/s | CLR [6]: 9.35 mL/min | Overall weighted mean CLR [6]: 9.4 mL/min | CLR Observed [6]: 9.35 mL/min | Papp A→B at 2 h [7]: 30 ×10⁻⁶ cm/s | Papp (Caco-2 cell monolayers): 29.95 × 10^− 6 cm/s

C[C@@H]1CN(c2c(F)c(N)c3c(=O)c(C(=O)O)cn(C4CC4)c3c2F)C[C@H](C)N1 [Sparfloxacin]
Apparent Freab [1]: 0.731 | Apparent Freab’ [1]: 0.737 | Freab [1]: 0.73 | pKa ([2]; pKa (acid)): 6.31 | pKa ([2]; pKa (base)): 8.94 | Ionisation at pH 6.5 [3]: Zwitterion | Papp,ref,calibrated [5]: 34.35 × 10^− 6 cm/s | CLR [6]: 21.7 mL/min | Overall weighted mean CLR [6]: 21.7 mL/min | CLR Observed [6]: 21.69 mL/min | Papp A→B at 2 h [7]: 49.8 ×10⁻⁶ cm/s | Papp (Caco-2 cell monolayers): 49.83 × 10^− 6 cm/s

Cc1cccc(C)c1NC(=O)C(C)N (centres unmarked) [Tocainide]
Apparent Freab [1]: 0.181 | Apparent Freab’ [1]: 0.183 | Freab [1]: 0.18 | logD [9]: 0.03 | Ionisation at pH 6.5 [3]: Base | Papp,ref,calibrated [5]: 4.68 × 10^− 6 cm/s | CLR [6]: 67.5 mL/min | Overall weighted mean CLR [6]: 67.5 mL/min | CLR Observed [6]: 67.50 mL/min | Papp A→B at 2 h [7]: 19 ×10⁻⁶ cm/s | Papp (Caco-2 cell monolayers): 19 × 10^− 6 cm/s

C[C@@H](c1ncncc1F)[C@](O)(Cn1cncn1)c1ccc(F)cc1F [Voriconazole]
logD [9]: 1.7 | Ionisation at pH 6.5 [3]: Neutral | logD [4]: 1.7 | Papp,ref,calibrated [5]: 134.68 × 10^− 6 cm/s | CLR [6]: 1.57 mL/min | Overall weighted mean CLR [6]: 1.6 mL/min | CLR Observed [6]: 1.57 mL/min | Papp A→B at 2 h [7]: 96.5 ×10⁻⁶ cm/s | Papp (Caco-2 cell monolayers): 96.51 × 10^− 6 cm/s
